Converted amounts (≈) assume the structure as drawn.
Experiments:
[1] = tested on: Enterobacter cloacae; assay: Antibacterial activity against beta-lactamase producing Enterobacter cloacae 45301 after 18 hrs by agar dilution assay; assay type: functional; settings: Enterobacter cloacae, 45301, 18 h
[2] = tested on: Citrobacter freundii; assay: Antibacterial activity against beta-lactamase producing Citrobacter freundii 43864 after 18 hrs by agar dilution assay; assay type: functional; settings: Citrobacter freundii, 43864, 18 h
[3] = tested on: Escherichia coli; assay: Antibacterial activity against ESBL negative Escherichia coli 1515 after 18 hrs by agar dilution assay; assay type: functional; settings: Escherichia coli, 1515, 18 h
[4] = tested on: Morganella morganii; assay: Antibacterial activity against beta-lactamase producing Morganella morganii 25830 after 18 hrs by agar dilution assay; assay type: functional; settings: Morganella morganii, 25830, 18 h
[5] = tested on: Serratia marcescens; assay: Antibacterial activity against beta-lactamase producing Serratia marcescens 41002 after 18 hrs by agar dilution assay; assay type: functional; settings: Serratia marcescens, 41002, 18 h
[6] = tested on: Escherichia coli; assay: Antibacterial activity against ESBL negative Escherichia coli 25922 after 18 hrs by agar dilution assay; assay type: functional; settings: Escherichia coli, 25922, 18 h
[7] = tested on: Klebsiella aerogenes; assay: Antibacterial activity against beta-lactamase producing Enterobacter aerogenes 45102 after 18 hrs by agar dilution assay; assay type: functional; settings: Klebsiella aerogenes, 45102, 18 h
[8] = tested on: Pseudomonas aeruginosa; assay: Antibacterial activity against BL positive Pseudomonas aeruginosa 27853 after 18 hrs by agar dilution assay; assay type: functional; settings: Pseudomonas aeruginosa, 27853, 18 h
[9] = tested on: Salmonella typhi; assay: Antibacterial activity against beta-lactamase producing Salmonella typhi H901 after 18 hrs by agar dilution assay; assay type: functional, Salmonella enterica subsp. enterica serovar Typhi; settings: Salmonella enterica, H901, 18 h
[10] = tested on: Klebsiella pneumoniae; assay: Antibacterial activity against ESBL negative Klebsiella pneumoniae 09-8 after 18 hrs by agar dilution assay; assay type: functional; settings: 09-8, 18 h
[11] = tested on: Klebsiella pneumoniae; assay: Antibacterial activity against ESBL positive Klebsiella pneumoniae 700603 after 18 hrs by agar dilution assay; assay type: functional; settings: Klebsiella pneumoniae, 700603, 18 h
[12] = tested on: Pseudomonas aeruginosa; assay: Antibacterial activity against BL positive Pseudomonas aeruginosa 09-14 after 18 hrs by agar dilution assay; assay type: functional; settings: 09-14, 18 h
[13] = tested on: Pseudomonas aeruginosa; assay: Antibacterial activity against BL positive Pseudomonas aeruginosa PAO1 after 18 hrs by agar dilution assay; assay type: functional; settings: PAO1, 18 h
[14] = tested on: Escherichia coli; assay: Antibacterial activity against ESBL negative Escherichia coli 09-20 after 18 hrs by agar dilution assay; assay type: functional; settings: 09-20, 18 h
[15] = tested on: Providencia rettgeri; assay: Antibacterial activity against Providencia rettgeri 31052 after 18 hrs by agar dilution assay; assay type: functional; settings: Providencia rettgeri, 31052, 18 h
[16] = tested on: Klebsiella pneumoniae; assay: Antibacterial activity against ESBL negative Klebsiella pneumoniae 7 after 18 hrs by agar dilution assay; assay type: functional; settings: Klebsiella pneumoniae, 7, 18 h
[17] = tested on: Escherichia coli; assay: Antibacterial activity against ESBL positive Escherichia coli 09-1 after 18 hrs by agar dilution assay; assay type: functional; settings: 09-1, 18 h
[18] = tested on: Proteus mirabilis; assay: Antibacterial activity against beta-lactamase producing Proteus mirabilis 09-1 after 18 hrs by agar dilution assay; assay type: functional; settings: 09-1, 18 h
[19] = tested on: Klebsiella pneumoniae; assay: Antibacterial activity against ESBL positive Klebsiella pneumoniae 09-25 after 18 hrs by agar dilution assay; assay type: functional; settings: 09-25, 18 h
[20] = tested on: Proteus vulgaris; assay: Antibacterial activity against beta-lactamase producing Proteus vulgaris 29905 after 18 hrs by agar dilution assay; assay type: functional; settings: Proteus vulgaris, 29905, 18 h
[21] = tested on: Klebsiella pneumoniae; assay: Antibacterial activity against NDM-1 positive Klebsiella pneumoniae BAA-2146 after 18 hrs by agar dilution assay; assay type: functional; settings: BAA-2146, 18 h
[22] = tested on: Escherichia coli; assay: Antibacterial activity against acrAB and acrEF knock-out Escherichia coli BL21 by microbroth dilution assay; assay type: functional
[23] = tested on: Escherichia coli; assay: Antibacterial activity against Escherichia coli BL21 by microbroth dilution assay; assay type: functional

Row | SMILES | MIC [2] [µg/mL] | MIC [3] [µg/mL] | MIC [4] [µg/mL] | MIC [5] [µg/mL] | MIC [6] [µg/mL] | MIC [7] [µg/mL] | MIC [8] [µg/mL] | MIC [9] [µg/mL] | MIC [10] [µg/mL] | MIC [11] [µg/mL] | MIC [12] [µg/mL] | MIC [13] [µg/mL] | MIC [14] [µg/mL] | MIC [15] [µg/mL] | MIC [16] [µg/mL] | MIC [17] [µg/mL] | MIC [18] [µg/mL] | MIC [19] [µg/mL] | MIC [20] [µg/mL] | MIC [21] [µg/mL] | also measured
1 | CC1(C)[C@H](NC(=O)/C(=N\OCc2ccc(C(=O)O)cc2)c2csc(N)n2)C(=O)N1S(=O)(=O)O | 2 (≈ 4.02 µM) | 8 (≈ 16.1 µM) | > 64 | 4 (≈ 8.04 µM) | 4 (≈ 8.04 µM) | 8 (≈ 16.1 µM) | > 64 | 32 (≈ 64.3 µM) | 2 (≈ 4.02 µM) | > 64 | > 64 | > 64 | 2 (≈ 4.02 µM) | ≤ 0.03 | 2 (≈ 4.02 µM) | 4 (≈ 8.04 µM) | 8 (≈ 16.1 µM) | 8 (≈ 16.1 µM) | 0.06 (≈ 0.121 µM) | 32 (≈ 64.3 µM) | MIC [1]: 2 µg/mL (≈ 4.02 µM)
2 | CC1(C)[C@H](NC(=O)/C(=N\OCc2cn(CC3CC3)nn2)c2csc(N)n2)C(=O)N1S(=O)(=O)O | 8 (≈ 16 µM) | 16 (≈ 32.1 µM) | > 64 | 32 (≈ 64.2 µM) | 16 (≈ 32.1 µM) | 32 (≈ 64.2 µM) | > 64 | 64 (≈ 128 µM) | 16 (≈ 32.1 µM) | > 64 | > 64 | > 64 | 16 (≈ 32.1 µM) | ≤ 0.03 | 16 (≈ 32.1 µM) | 16 (≈ 32.1 µM) | > 64 | 32 (≈ 64.2 µM) | 1 (≈ 2.01 µM) | 64 (≈ 128 µM) | MIC [1]: 8 µg/mL (≈ 16 µM)
3 | CN(C)[C@@H]1C(O)=C(C(N)=O)C(=O)[C@@]2(O)C(O)=C3C(=O)c4c(O)cccc4[C@@](C)(O)[C@H]3C[C@@H]12 [TETRACYCLINE] |  |  |  |  |  |  |  |  |  |  |  |  |  |  |  |  |  |  |  |  | MIC [22]: 0.25 µg/mL (≈ 0.563 µM); MIC [23]: 0.5 µg/mL (≈ 1.13 µM)
4 | C[C@H]1[C@H](NC(=O)/C(=N\OC(C)(C)C(=O)O)c2csc(N)n2)C(=O)N1S(=O)(=O)O [AZTREONAM] | 0.125 (≈ 0.287 µM) | 0.125 (≈ 0.287 µM) | 0.125 (≈ 0.287 µM) | 0.125 (≈ 0.287 µM) | 0.125 (≈ 0.287 µM) | ≤ 0.03 | 2 (≈ 4.59 µM) | ≤ 0.03 | 16 (≈ 36.7 µM) | 32 (≈ 73.5 µM) | 4 (≈ 9.19 µM) | 0.5 (≈ 1.15 µM) | > 256 | ≤ 0.03 | ≤ 0.03 | 8 (≈ 18.4 µM) | ≤ 0.03 | 32 (≈ 73.5 µM) | ≤ 0.03 | 256 (≈ 588 µM) | 
5 | CC1(C)[C@H](NC(=O)/C(=N\OCc2ccccc2)c2csc(N)n2)C(=O)N1S(=O)(=O)O | > 64 | > 64 | > 64 | > 64 | > 64 | > 64 | > 64 | > 64 | > 64 | > 64 | > 64 | > 64 | > 64 | > 64 | > 64 | > 64 | > 64 | > 64 | > 64 | > 64 | MIC [1]: > 64 µg/mL
6 | CCN(CC)CC.C[C@H]1[C@H](NC(=O)/C(=N\OCc2ccc(C(=O)N/N=C/c3ncc[nH]3)cc2)c2csc(N)n2)C(=O)N1S(=O)(=O)O | 2 | 8 | 0.25 | 4 | 4 | 2 | 32 | 1 | 8 | 64 | 32 | 32 | 64 | 0.06 | 8 | 64 | 2 | > 64 | 0.125 | > 64 | MIC [1]: 1 µg/mL; MIC [22]: ≤ 0.06 µg/mL; MIC [23]: 1 µg/mL

— ChEMBL document CHEMBL3763031, “Design, synthesis and biological evaluation of monobactams as antibacterial agents against gram-negative bacteria” (2016)
